Experiments:
[1] = system: cardiac fibroblasts transfected with AdV-Kv1.3-GFP; test: Phase contrast microscopy of cellular morphology of Kv1.3 expressing cardiac fibroblasts; format: cell-based, rat; details: cells expressing Kv1.3 after 10^7 PFU/ml AdV-Kv1.3-GFP; phase contrast microscopy (FIG. 8B)
Excerpt: (§1) Cells: Primary neonatal cardiac cells were obtained from ventricles of 2-3-day-old rat pups. The ventricles were fine minced, dissociated in Ca^2+-free Hank's balanced salt solution (HBSS) supplemented with 0.1%, trypsin and 0.006% pancreatin, and dispersed by triturating.
(§2) Separation and culture of cardiac myocytes and fibroblasts: The solution of dispersed cells was supplemented with 10% neonatal calf serum to stop enzymatic activity, centrifuged, resuspended in culture medium, pre-plated in large culture flasks, and incubated for two hours to isolate the fibroblast enriched fraction. Fibroblasts were further purified by media exchange within 1 hour after each passage. The myocytes remaining in suspension were collected and plated at 1.5 10^5 cells/cm^2 and grown for five to seven days before experimentation.
(§3) Transfection: Subconfluent myocyte and fibroblast cultures were transfected with AdV-Kv1.3-GFP or AdV-GFP at 10^6-10^8 PFU/ml. After transfection the cells were cultured in 0-5% serum media with 0, 1, 10 or 100 nM Charybdotoxin (CTx), which is a specific K^+ channel blocker. After three days in culture, the cells were visually monitored and assayed.

[2] = system: cardiac fibroblasts transfected with AdV-Kv1.3-GFP; test: Cell viability and apoptosis with Hoechst nuclei stain in Kv1.3 transfected cardiac fibroblasts; format: cell-based, rat; details: for rescue of cells from Kv1.3 induced apoptosis: Kv1.3 transfected fibroblasts, n=3 for each titer, three days in culture
Excerpt: as §1, §2, §3
Cell Viability and apoptosis: Cells were assayed for viability and apoptosis with Hoechst nuclei stain.

Charybdotoxin
cellular morphology of the fibroblasts [1]: maintained normal cellular morphology | rescue of cells from Kv1.3 induced apoptosis ([2]; Charybdotoxin alone (FIG. 7A)): partially rescued the cells | rescue of cells from Kv1.3 induced apoptosis ([2]; cTx and 5% serum (FIG. 7B)): partially rescued the cells | cardiac fibroblast cell viability ([2]; cells expressing Kv1.3, addition of Charybdotoxin (FIG. 8)): rescued

Reference: patent US20110144028A1, “MODULATING CELLULAR ELECTROPHYSIOLOGY” (priority 2009, published 2011)
